Results on 1 molecule are retold here after publication PMC2254147, “Novel Triazine JPC-2067-B Inhibits Toxoplasma gondii In Vitro and In Vivo” (PLoS Neglected Tropical Diseases, 2008).

For data set [1], the system named is Tachyzoites of the RH strain of T. gondii. The data set is described as follows: T. gondii tachyzoite growth in human foreskin fibroblasts, 3H uracil uptake and microscopy. Format: cell-based. The following applies: Toxoplasma gondii, Fibroblast, RH strain tachyzoites in HFF, 3H uracil uptake after four days in culture. How it is done:
Tachyzoites of the RH strain of T. gondii were passaged in human foreskin fibroblasts (HFF). They were used to infect fibroblasts to determine antimicrobial effects of candidate compounds. Outcome was assessed with microscopy and uracil uptake after four days in culture as described,[12],[13]. Briefly, for testing of inhibitors in vitro against T. gondii tachyzoites, four-day old confluent cultures of human foreskin fibroblasts (HFF) were infected with 10^3 tachyzoites and cultured for 1 hour to allow parasite invasion. Inhibitor was added and cells cultured for 3 days. They were supplemented with ^3H uracil and incubation extended for a further day, whereupon uracil incorporation into cells and thus parasite growth were assessed by liquid scintillation counting,[12],[13]. Studies were performed with inhibitors as described in [8],[12],[13].
For in vitro studies, a stock solution of JPC-2067-B was initially dissolved in 100% dimethyl sulfoxide (DMSO) and then diluted in complete tissue culture medium (IMDM-C) [IMDM with NaHCO3 and 25 mM Hepes (Cambrex Bio Science, Walkersville, MD), 10% fetal bovine serum (Gibco, Grand Island, N.Y.), 1× antibiotic-antimycotic solution (Cellgro, Mediatech), and 2 mM L-glutamine (Gibco). Working concentrations of JPC-2067-B were made using IMDM-C. Concentrations measured ranged from 10 to 100 nM. […]

Data set [2] deals with human foreskin fibroblasts (HFF). Description: Toxicity for host cells, 3H thymidine incorporation by non-confluent HFF. The following applies: increasing concentrations, tested concomitantly with T. gondii. The class given is cell-based.
For data set [3], the target named is T1, TgDHFR (Toxoplasma gondii, UniProt Q07422).
T1 construct: DHFR from T. gondii was isolated directly from RH strain T. gondii grown in culture; endogenous in cells; host or cells: RH strain T. gondii grown on CHO/dhfr- cells
T1 sequence (Q07422 1-610): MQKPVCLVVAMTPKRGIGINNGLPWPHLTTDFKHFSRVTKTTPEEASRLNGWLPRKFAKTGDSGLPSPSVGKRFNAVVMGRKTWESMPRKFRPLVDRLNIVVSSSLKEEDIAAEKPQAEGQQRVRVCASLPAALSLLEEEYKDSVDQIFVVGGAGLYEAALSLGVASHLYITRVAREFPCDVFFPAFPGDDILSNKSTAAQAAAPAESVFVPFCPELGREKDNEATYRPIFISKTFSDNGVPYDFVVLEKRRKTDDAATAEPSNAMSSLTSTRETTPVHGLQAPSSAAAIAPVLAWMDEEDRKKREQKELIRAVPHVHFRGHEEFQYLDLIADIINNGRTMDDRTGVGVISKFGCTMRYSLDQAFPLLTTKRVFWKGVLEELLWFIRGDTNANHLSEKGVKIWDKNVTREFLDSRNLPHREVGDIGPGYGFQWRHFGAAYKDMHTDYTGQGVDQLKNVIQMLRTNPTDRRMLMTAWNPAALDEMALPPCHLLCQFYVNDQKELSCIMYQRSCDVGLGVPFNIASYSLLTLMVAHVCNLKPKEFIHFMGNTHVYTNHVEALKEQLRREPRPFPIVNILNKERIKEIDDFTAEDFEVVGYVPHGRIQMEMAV
Description: biochemical. The class given is biochemical. The following applies: 37°C. How it is done:
DHFR from Pneumocystis carinii was produced as the recombinant enzyme expressed in Escherichia coli. […] Organisms were introduced into a confluent monolayer and harvested when the mammalian cells were lysed. The 100,000× g supernate was stored in liquid nitrogen.
The spectrophotometric assay for DHFR was optimized for temperature and concentration of substrate and cofactor for each enzyme. […] The reaction was continuously recorded for 3 minutes. […] The low background activity in the absence of dihydrofolic acid was subtracted from all rates.
DHFR was assayed with several concentrations of inhibitor to produce rates ranging from 1 to 90% of the uninhibited rate. At least three concentrations were required for calculation; most curves contained five concentrations.

For data set [4], the target named is T2, hDHFR (Homo sapiens, UniProt P00374).
T2 construct: made in house
T2 sequence (P00374 1-187): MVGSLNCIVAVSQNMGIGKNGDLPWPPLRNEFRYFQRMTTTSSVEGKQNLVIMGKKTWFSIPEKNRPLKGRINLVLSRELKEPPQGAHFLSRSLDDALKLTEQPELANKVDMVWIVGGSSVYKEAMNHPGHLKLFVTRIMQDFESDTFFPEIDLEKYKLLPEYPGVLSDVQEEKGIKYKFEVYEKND
Description: Plate reader DHFR assay, recombinant human DHFR. Format: biochemical. The text has this: (§1) DHFR from T. gondii prepared as above was also directly compared to purified recombinant P. falciparum DHFR (pfDHFR) and purified recombinant human DHFR (hDHFR). The hDHFR was from pDFR plasmid. The enzyme was purified following ammonium sulfate precipitation, methotrexate:agarose affinity chromatography, and finally a Superdex 200 size exclusion column. The pfDHFR isolation methods were those reported previously,[44]. […] The same buffer as used in the other assays comparing T. gondii DHFR with DHFRs from rat liver P. carinii and M. avium intracellulare was used but the maximal activity, temperature, and length of observation were adjusted for assays on the specific plate reader. […] The reaction was setup at 23°C, the plate loaded, and the OD340 recorded at 20 second intervals for 10 minutes. The first 8 minutes were used to generate linear fit slopes in Excel. […] Results are expressed as the percent of control activity versus log concentration of inhibitor. Prism 5.0 was used to generate curves from 12 different concentrations of inhibitor using a non-linear fit method.

Data set [5] has as its target T1, TgDHFR. Description: biochemical. Format: biochemical. The following applies: 23°C.
Text: as §1

Data set [6] deals with tester strains TA97, TA98, TA100, TA102 and TA1535. The data set is described as follows: Ames Test with and without microsomal activation. The method, then: A 42-day toxicology study in CD-1 mice at doses up to 98 mg/kg evaluating well-being, weight gain, and histopathology was performed. […] 7.5 mg/kg was established as the NOAEL (No Observed Adverse Effect Level). JPC-2056 and JPC-2067 were assayed in the Ames Test with and without microsomal activation with tester strains TA97, TA98, TA100, TA102 and TA1535.

The term IC50 denotes the midpoint of a concentration-inhibition curve. One may read the IC90 as the point of the concentration-response curve where the effect stands at 90%.

Entries after “also recorded” stand apart in the source; their conditions may differ. Read-outs that look alike come from different tables or passages of the source.

Turning to `CC1(C)N=C(N)N=C(N)N1OCCCOc1ccc(OC(F)(F)F)cc1Cl` [JPC-2067-B, 4,6-diamino-1,2-dihydro-2,2-dimethyl-1-(3′(2-chloro-, 4-trifluoromethoxyphenoxy)propyloxy)-1,3,5-triazine], the IC50 in data set [1] came out at 20 nM; in data set [3] ((95% confidence limits), read-out: Tg DHFR IC50), 6.5 nM; in data set [4] (recombinant, 23°C, (95% Confidence Intervals), read-out: hDHFR IC50), 148 nM; in data set [4] (text to Figure 5 and Table 2, read-out: IC50 for human DHFR), 150 nM; in data set [5] (Tg lysate, (95% Confidence Intervals)), 32 nM. Also, the IC90 in data set [1] (read-out: IC90, T. gondii tachyzoites in tissue culture) worked out at 50 nM. Moreover, the “Toxicity for host cells, uptake of tritiated thymidine by nonconfluent fibroblasts” value in data set [2] is “no toxic effect on host cells; also recorded: no toxicity”. Further, the “Ratio of IC50 values rat liver DHFR/TgDHFR” value in data set [3] (lysates) is given as 3.4. For the same molecule, the “Ratio of IC50 values hDHFR/tgDHFR” value in data set [5] (high throughput method) amounted to 4.6. Further, in data set [6], the “Ames Test, with and without microsomal activation” value is listed as “No activity”. Moreover, the “Ames w/o Activation” value in data set [6] was “Not Active ^*”. Also, the “Ames with Activation” value in data set [6] is “Not Active ^*”.
